Values quoted from earlier work, collected in PMC3065533 (Journal of nuclear medicine : official publication, Society …, 2011).

Molecular target: melanocortin-1 (MC1) receptor (Mus musculus, UniProt Q01727)
Settings: stated in methods without reference

Sequence of melanocortin-1 (MC1) receptor (Q01727 whole entry): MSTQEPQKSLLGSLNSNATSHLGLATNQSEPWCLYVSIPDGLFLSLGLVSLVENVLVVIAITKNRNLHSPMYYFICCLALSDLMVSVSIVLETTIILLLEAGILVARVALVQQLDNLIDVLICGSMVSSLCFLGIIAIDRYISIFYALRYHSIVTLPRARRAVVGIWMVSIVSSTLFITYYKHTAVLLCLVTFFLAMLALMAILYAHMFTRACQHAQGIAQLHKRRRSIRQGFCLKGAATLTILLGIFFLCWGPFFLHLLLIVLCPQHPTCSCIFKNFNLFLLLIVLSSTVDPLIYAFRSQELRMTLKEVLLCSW

MC1 receptor binding affinity (in words): picomolar
Substance: NDP-MSH
